Measurements taken from the NIST ThermoML archive (doi:10.1016/j.jct.2007.05.011).

Assay: xn = mol fraction of the nth substance listed
Details: 101 kPa, Liquid; for mass density: Vibrating tube method

NCCO.O=CO [2-hydroxyethylammonium formate] + O
Details | mass density [kg/m3] | speed of sound [m/s]
288.15 K, x2 = 0 | 1183.57 | 1733.9
288.15 K, x2 = 0.047 | 1182.89 | 1759.2
288.15 K, x2 = 0.108 | 1181.45 | 1760.3
288.15 K, x2 = 0.199 | 1178.55 | 1761.4
288.15 K, x2 = 0.311 | 1173.68 | 1761.4
288.15 K, x2 = 0.4 | 1168.78 | 1759.7
288.15 K, x2 = 0.492 | 1162.23 | 1757.1
288.15 K, x2 = 0.601 | 1151.56 | 1749.9
288.15 K, x2 = 0.699 | 1137.39 | 1739.3
288.15 K, x2 = 0.8 | 1114.92 | 1710.8
288.15 K, x2 = 0.9 | 1076.21 | 1644.7
288.15 K, x2 = 0.95 | 1045.03 | 1578.9
290.65 K, x2 = 0 | 1181.81 | 1727.4
290.65 K, x2 = 0.047 | 1181.24 | 1754
290.65 K, x2 = 0.108 | 1179.79 | 1755.5
290.65 K, x2 = 0.199 | 1176.92 | 1756.4
290.65 K, x2 = 0.311 | 1172.05 | 1756.7
290.65 K, x2 = 0.4 | 1167.17 | 1755.1
290.65 K, x2 = 0.492 | 1160.63 | 1752.9
290.65 K, x2 = 0.601 | 1149.99 | 1746.3
290.65 K, x2 = 0.699 | 1135.87 | 1736.3
290.65 K, x2 = 0.8 | 1113.52 | 1709.2
290.65 K, x2 = 0.9 | 1075.06 | 1645.8
290.65 K, x2 = 0.95 | 1044.13 | 1582.3
293.15 K, x2 = 0 | 1180.04 | 1721.3
293.15 K, x2 = 0.047 | 1179.6 | 1748.9
293.15 K, x2 = 0.108 | 1178.13 | 1750.5
293.15 K, x2 = 0.199 | 1175.29 | 1751.4
293.15 K, x2 = 0.311 | 1170.43 | 1752
293.15 K, x2 = 0.4 | 1165.55 | 1750.6
293.15 K, x2 = 0.492 | 1159.04 | 1748.7
293.15 K, x2 = 0.601 | 1148.42 | 1742.6
293.15 K, x2 = 0.699 | 1134.35 | 1733.3
293.15 K, x2 = 0.8 | 1112.1 | 1707.5
293.15 K, x2 = 0.9 | 1073.89 | 1646.8
293.15 K, x2 = 0.95 | 1043.2 | 1585.6
295.65 K, x2 = 0 | 1178.27 | 1715.1
295.65 K, x2 = 0.047 | 1177.95 | 1743.8
295.65 K, x2 = 0.108 | 1176.52 | 1745.4
295.65 K, x2 = 0.199 | 1173.65 | 1746.5
295.65 K, x2 = 0.311 | 1168.8 | 1747.2
295.65 K, x2 = 0.4 | 1163.94 | 1746.1
295.65 K, x2 = 0.492 | 1157.44 | 1744.4
295.65 K, x2 = 0.601 | 1146.85 | 1738.9
295.65 K, x2 = 0.699 | 1132.83 | 1730.2
295.65 K, x2 = 0.8 | 1110.67 | 1705.6
295.65 K, x2 = 0.9 | 1072.7 | 1647.6
295.65 K, x2 = 0.95 | 1042.26 | 1588.8
298.15 K, x2 = 0 | 1176.49 | 1709
298.15 K, x2 = 0.047 | 1176.31 | 1738.7
298.15 K, x2 = 0.108 | 1174.91 | 1740.4
298.15 K, x2 = 0.199 | 1172.02 | 1741.6
298.15 K, x2 = 0.311 | 1167.18 | 1742.5
298.15 K, x2 = 0.4 | 1162.32 | 1741.6
298.15 K, x2 = 0.492 | 1155.83 | 1740.2
298.15 K, x2 = 0.601 | 1145.28 | 1735.1
298.15 K, x2 = 0.699 | 1131.3 | 1727.1
298.15 K, x2 = 0.8 | 1109.23 | 1703.7
298.15 K, x2 = 0.9 | 1071.48 | 1648.3
298.15 K, x2 = 0.95 | 1041.28 | 1591.7
300.65 K, x2 = 0 | 1174.71 | 1702.9
300.65 K, x2 = 0.047 | 1174.67 | 1733.6
300.65 K, x2 = 0.108 | 1173.29 | 1735.3
300.65 K, x2 = 0.199 | 1170.39 | 1736.7
300.65 K, x2 = 0.311 | 1165.55 | 1737.8
300.65 K, x2 = 0.4 | 1160.7 | 1737.1
300.65 K, x2 = 0.492 | 1154.23 | 1735.9
300.65 K, x2 = 0.601 | 1143.7 | 1731.2
300.65 K, x2 = 0.699 | 1129.77 | 1723.9
300.65 K, x2 = 0.8 | 1107.79 | 1701.8
300.65 K, x2 = 0.9 | 1070.24 | 1648.7
300.65 K, x2 = 0.95 | 1040.27 | 1594.4
303.15 K, x2 = 0 | 1172.94 | 1696.8
303.15 K, x2 = 0.047 | 1173.02 | 1728.5
303.15 K, x2 = 0.108 | 1171.66 | 1730.3
303.15 K, x2 = 0.199 | 1168.76 | 1731.8
303.15 K, x2 = 0.311 | 1163.93 | 1733.1
303.15 K, x2 = 0.4 | 1159.09 | 1732.6
303.15 K, x2 = 0.492 | 1152.62 | 1731.6
303.15 K, x2 = 0.601 | 1142.12 | 1727.4
303.15 K, x2 = 0.699 | 1128.22 | 1720.7
303.15 K, x2 = 0.8 | 1106.33 | 1699.7
303.15 K, x2 = 0.9 | 1068.98 | 1649
303.15 K, x2 = 0.95 | 1039.22 | 1596.8
305.65 K, x2 = 0 | 1171.16 | –
305.65 K, x2 = 0.047 | 1171.38 | –
305.65 K, x2 = 0.108 | 1170.03 | –
305.65 K, x2 = 0.199 | 1167.12 | –
305.65 K, x2 = 0.311 | 1162.3 | –
305.65 K, x2 = 0.4 | 1157.47 | –
305.65 K, x2 = 0.492 | 1151.02 | –
305.65 K, x2 = 0.601 | 1140.53 | –
305.65 K, x2 = 0.699 | 1126.67 | –
305.65 K, x2 = 0.8 | 1104.86 | –
305.65 K, x2 = 0.9 | 1067.69 | –
305.65 K, x2 = 0.95 | 1038.12 | –
